# Assay results reported in patent US8022225B2, “Triazole derivative” (Taisho Pharmaceutical Co., Ltd, priority 2004, dated 2011).
# Target: T1, human Edg-1(S1P1) (Homo sapiens, UniProt P21453)
# T1 construct: expressed in transfected cells; host or cells: HEK-293
# Experiment: Cell system binding test: inhibition of [3H]-S1P binding to Edg-1(S1P1) gene transferred HEK-293 cells
# Conditions: 10 μM compound, [3H]-S1P 10 nM, read-out: Cell system binding test % inhibition (10 μM)
# Procedure: Cells (1×10^5 cells/well) obtained as described above were seeded in poly-L-lysine-coated 96-well plates (Corning Incorporated), and then incubated in a 5% carbon dioxide gas incubator for 12 hours at 37° C. with the use of an MEM medium (Invitrogen Corporation) containing 100 U/mL of penicillin, 100 μg/mL of streptomycin, a 1% MEM nonessential amino acid solution, and 10% FCS. […] After the cells were washed twice with the buffer, they were solubilized with 100 μL of Opti Phase Supermix (produced by Perkin-Elmer), and measured for radioactivity by means of Micro Beta (produced by Perkin-Elmer).
# Inhibition rate(%)=[1−(A−C)/(B−C)]×100
# T1 sequence (P21453 whole entry): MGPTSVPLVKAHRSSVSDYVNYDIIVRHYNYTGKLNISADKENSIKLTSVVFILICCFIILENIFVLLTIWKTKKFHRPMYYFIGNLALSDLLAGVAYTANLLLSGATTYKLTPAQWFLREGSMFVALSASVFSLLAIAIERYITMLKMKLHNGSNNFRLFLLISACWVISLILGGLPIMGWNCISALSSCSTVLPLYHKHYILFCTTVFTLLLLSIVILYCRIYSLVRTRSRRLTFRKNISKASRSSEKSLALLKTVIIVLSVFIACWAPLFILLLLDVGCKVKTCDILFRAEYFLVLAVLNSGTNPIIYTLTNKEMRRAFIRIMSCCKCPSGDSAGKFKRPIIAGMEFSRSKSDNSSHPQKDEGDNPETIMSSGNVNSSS
row,Compound,inhibition at 10 µM
1,CCn1c(OC)nnc1[C@@H](C)NS(=O)(=O)Cc1ccc(F)cc1 [Compound 294],64.5%
2,CCn1c(OC)nnc1[C@@H](C)NS(=O)(=O)Cc1cccc(C(F)(F)F)c1 [Compound 295],66.1%
3,CCn1c(OC)nnc1[C@@H](C)NS(=O)(=O)CC(c1ccccc1)c1ccccc1 [Compound 297],23.8%
4,CCn1c(OC)nnc1[C@@H](C)NS(=O)(=O)c1c(F)cccc1F [Compound 298],85.7%
5,CCn1c(OC)nnc1[C@@H](C)NS(=O)(=O)c1cc(Cl)ccc1OC [Compound 300],95%
6,CCn1c(OC)nnc1[C@@H](C)NS(=O)(=O)c1ccc(CCC(=O)OC)cc1 [Compound 301],78.3%
7,CCn1c(OC)nnc1[C@@H](C)NS(=O)(=O)Cc1cccc([N+](=O)[O-])c1 [Compound 304],79.8%
8,CCn1c(OC)nnc1[C@@H](C)NS(=O)(=O)Cc1cccc(Cl)c1 [Compound 305],86.5%
9,CCn1c(OC)nnc1[C@@H](C)NS(=O)(=O)c1cc(Cl)ccc1F [Compound 316],92.9%
10,CCn1c(OC)nnc1[C@@H](C)NS(=O)(=O)CCCOc1ccc(OC)cc1 [Compound 318],68.5%
11,CCn1c(OC)nnc1[C@@H](C)NS(=O)(=O)Cc1ccccn1 [Compound 323],64.4%
12,CCn1c(OC)nnc1[C@@H](C)NS(=O)(=O)c1cccc(Oc2ccccc2OC)c1 [Compound 324],88.1%
13,CCn1c(OC)nnc1[C@@H](C)NS(=O)(=O)Cc1cccnc1 [Compound 325],36.5%
14,CCn1c(OC)nnc1[C@@H](C)NS(=O)(=O)Cc1ccncc1 [Compound 329],38.5%
15,CCn1c(OC)nnc1[C@@H](C)NS(=O)(=O)CCN1C(=O)c2ccccc2C1=O [Compound 331],23.9%
16,CCn1c(OC)nnc1[C@@H](C)NS(=O)(=O)c1ccccc1OC [Compound 332],35.5%

row,Compound,inhibition at 10 µM
1,CCn1c(OC)nnc1[C@@H](C)NS(=O)(=O)CC1CCCCC1 [Compound 333],92.8%
2,CCCCCCCCCCS(=O)(=O)N[C@H](C)c1nnc(OC)n1CC [Compound 334],54.7%
3,CCn1c(OC)nnc1[C@@H](C)NS(=O)(=O)c1cnoc1C [Compound 336],89.3%
4,CCn1c(OC)nnc1[C@@H](C)NS(=O)(=O)c1sc(C)nc1C [Compound 339],92.1%
5,CCn1c(OC)nnc1[C@@H](C)NS(=O)(=O)c1cccc2nsnc12 [Compound 340],77.5%
6,CCn1c(OC)nnc1[C@@H](C)NS(=O)(=O)c1ccsc1 [Compound 342],88.4%
7,CCn1c(OC)nnc1[C@@H](C)NS(=O)(=O)c1ccc(-c2cnco2)s1 [Compound 345],88.5%
8,CCn1c(OC)nnc1[C@@H](C)NS(=O)(=O)c1ccc(-c2cnco2)cc1 [Compound 346],38.5%
9,CCCCNC(=O)Nc1ccc(S(=O)(=O)N[C@H](C)c2nnc(OC)n2CC)cc1 [Compound 353],23.3%
10,CCn1c(OC)nnc1[C@@H](C)NS(=O)(=O)c1cccc(C(=O)c2ccncc2)c1 [Compound 357],85.6%
11,CCn1c(OC)nnc1[C@@H](C)NS(=O)(=O)c1cccc(C(=O)c2ccccn2)c1 [Compound 358],79.6%
12,CCn1c(OC)nnc1[C@@H](C)NS(=O)(=O)c1ccc(NC(=O)NC)c(Cl)c1 [Compound 362],28.2%
13,CCn1c(OC)nnc1[C@@H](C)NS(=O)(=O)c1ccc2oc(=O)ccc2c1 [Compound 363],100%
14,CCn1c(OC)nnc1[C@@H](C)NS(=O)(=O)c1ccc(Cl)c(S(N)(=O)=O)c1 [Compound 364],27%
15,CCn1c(OC)nnc1[C@@H](C)NS(=O)(=O)c1ccccc1-c1ccccc1 [Compound 370],32.3%

# Now from value to molecule:
row,inhibition at 10 µM,Compound
1,73.4%,CCn1c(OC)nnc1[C@@H](C)NS(=O)(=O)c1cccnc1 [Compound 373]
2,67.8%,CCOc1nnc([C@@H](C)NS(=O)(=O)c2cccc(O)c2)n1CC [Compound 419]
3,71.3%,CCn1c(OC)nnc1[C@@H](C)NS(=O)(=O)c1ncc(C)s1 [Compound 421]
4,47.5%,CCn1c(OC)nnc1[C@@H](C)NS(=O)(=O)c1ccc(O)cc1 [Compound 422]
5,59.2%,CCn1c(OC)nnc1[C@@H](C)NS(=O)(=O)c1nc(C)cs1 [Compound 423]
6,58.7%,CCn1c(OC)nnc1[C@@H](C)NS(=O)(=O)c1ccc(C)cn1 [Compound 424]
7,83.6%,CCn1c(OC)nnc1[C@@H](C)NS(=O)(=O)c1ccc(C)o1 [Compound 425]
8,82.2%,CCOc1nnc([C@@H](C)NS(=O)(=O)c2cnc(C)s2)n1CC [Compound 438]
9,14.7%,CCn1c(OC)nnc1C(CCc1ccccc1)NS(=O)(=O)c1ccc(Cl)cc1 (stereo not shown) [Compound 441]
10,40.2%,CCn1c(OC)nnc1[C@@H](C)NS(=O)(=O)c1ccco1 [Compound 442]

# Same assay, conditions: test compound 10^-5 M, [3H]-S1P 10 nM, 1 hour, read-out: Edg-1(S1P1) binding inhibition rate (cell system binding test)
row,inhibition at 10 µM,Compound
1,88.9%,CCn1c(OC)nnc1[C@@H](CO)NS(=O)(=O)c1ccc(Cl)cc1 [Compound 483]
2,88.6%,CCn1c(OC)nnc1[C@H](NS(=O)(=O)c1ccc(Cl)cc1)[C@H](C)O [Compound 506]
3,100%,CCn1c(OC)nnc1[C@@H](C)NS(=O)(=O)c1ccc(OC)cc1 [Compound 508]
4,96.3%,CCOc1nnc([C@@H](C)NS(=O)(=O)c2ccc(Cl)cc2)n1C [Compound 540]

# Target: T1, human Edg-1(S1P1)
# Experiment: Membrane system binding test: inhibition of [33P]-S1P binding to the membrane fraction of Edg-1(S1P1) gene transferred HEK-293 cells
# Conditions: 10 μM compound; [33P]-S1P 0.1 nM; membrane fraction of Edg-1(S1P1) gene transferred HEK-293 cells; read-out: Membrane system binding test % inhibition (10 μM)
# Procedure: The membrane fraction was obtained by treating the cells with a solubilizing buffer (1 mM Tris/HCl, pH 7.2) for 10 minutes on ice, centrifuging the system (1000×g, 5 min) to remove insoluble fractions, and then centrifuging the system (40000×g, 30 min, 4° C.). The resulting membrane fraction was dissolved in a binding buffer (20 mM Tris-HCl, pH 7.4, 100 mM NaCl, 15 mM NaF, 2 mM deoxypyridoxine, 4 mg/mL fatty acid-free BSA), and then [^33P]-S1P (produced by ARC, end concentration 0.1 nM) and a DMSO solution of the test compound (end concentration of the compound: 10^−5 M, end concentration of DMSO: 0.1%) were added, followed by stirring the mixture and subsequently treating it for 1 hour at 30° C. Using a harvester, the membrane fraction was harvested onto unifilter-96GF/C filter (produced by Perkin-Elmer). Then, the filter with the membrane fraction was washed 4 times with the binding buffer, and the filter was dried. To the filter, 25 μL Microscint 0 (produced by Perkin-Elmer) was added, and the assay system was measured for radioactivity by means of Top Count NXT (Packard). Based on the radioactivity, the amount (A) of binding of [^33P]-S1P to the membrane fraction upon addition of the compound was calculated.
# The same procedure was performed in the absence of the test compound, and the amount (B) of binding of [^33P]-S1P was calculated. Moreover, the same procedure was performed in the absence of the test compound with the use of HEK-293 cells, to which the Edg-1(S1P1) gene had not been transferred, and the background amount (C) of binding of [^33P]-S1P was calculated.
# The Edg-1(S1P1) binding inhibition rate of the compound, calculated from the following equation, is shown in […]
row,inhibition at 10 µM,Compound
1,44.4%,CCCOc1nnc([C@H](C)NS(=O)(=O)c2ccc(Cl)cc2)n1CC [Compound 184]
2,75.5%,CCn1c(OC)nnc1[C@@H](C)NS(=O)(=O)c1ccc(C)nc1 [Compound 281]

# Same assay, conditions: test compound 10^-5 M; [33P]-S1P 0.1 nM; 1 hour at 30° C.; HEK-293 membrane fraction
row,Edg-1(S1P1) binding inhibition rate (membrane system binding test),Compound
1,94.0%,CCCOc1nnc([C@@H](Cc2ccc(OC)cc2)NS(=O)(=O)c2ccc(Cl)c(Cl)c2)n1CC [Compound 528]

# Same assay, conditions: test compound 10^-5 M; [33P]-S1P 0.1 nM; 1 hour at 30° C.; HEK-293 membrane fraction; read-out: Edg-1(S1P1) binding inhibition rate (membrane system binding test)
row,inhibition at 10 µM,Compound
1,96.7%,CCn1c(OC)nnc1[C@@H](Cc1ccccc1)NS(=O)(=O)c1ccc(Cl)c(Cl)c1 [Compound 507]
2,83.5%,CCn1c(SC)nnc1C(Cc1ccc(C(F)(F)F)cc1)NS(=O)(=O)c1ccc(Cl)c(Cl)c1 (stereo not shown) [Compound 518]
3,82.5%,CCn1c(SC)nnc1C(Cc1ccc(C)cc1)NS(=O)(=O)c1ccc(Cl)c(Cl)c1 (stereo not shown) [Compound 523]
4,75%,CCn1c(SC)nnc1C(Cc1ccc(Cl)c(Cl)c1)NS(=O)(=O)c1ccc(Cl)c(Cl)c1 (stereo not shown) [Compound 524]
5,98%,CCCOc1nnc([C@@H](Cc2ccc(C)cc2)NS(=O)(=O)c2ccc(Cl)c(Cl)c2)n1CC [Compound 525]
6,88.9%,CCCOc1nnc([C@@H](Cc2ccc(Cl)c(Cl)c2)NS(=O)(=O)c2ccc(Cl)c(Cl)c2)n1CC [Compound 526]
7,89.7%,CCCOc1nnc([C@@H](Cc2ccc(OC)cc2)NS(=O)(=O)c2ccc(Cl)c(Cl)c2)n1CC [Compound 527]
8,100%,CCCOc1nnc([C@@H](Cc2ccccc2)NS(=O)(=O)c2ccc(Cl)c(Cl)c2)n1CC [Compound 529]
9,97.2%,CCn1c(OCC(F)(F)F)nnc1C(Cc1ccccc1)NS(=O)(=O)c1ccc(Cl)c(Cl)c1 (stereo not shown) [Compound 530]
10,100%,CCn1c(OC2CCC2)nnc1[C@@H](Cc1ccccc1)NS(=O)(=O)c1ccc(Cl)c(Cl)c1 [Compound 531]
